Columns and labels:
Assay type in all cases: in vivo
[1] = system: Silverleaf Whitefly (Bemisia argentifolii); experiment: CE.4 Silverleaf whitefly, comparative test; conditions: 72 h, read-out: % mortality in comparison to untreated controls
Description: (§1) The tables show % mortality in comparison to untreated controls.
CE.4 Silverleaf Whitefly (Bemisia argentifolii)
The active compounds were formulated in 50:50 acetone:water (vol:vol) and 100 ppm Kinetica™ surfactant.
Selected cotton plants were grown to the cotyledon state (one plant per pot). The cotyledons were dipped into the test solution to provide complete coverage of the foliage and placed in a well-vented area to dry. Each pot with treated seedling was placed in a plastic cup and 10 to 12 whitefly adults (approximately 3-5 day old) were introduced. The insects were collected using an aspirator and a Tygon® tubing connected to a barrier pipette tip. The tip, containing the collected insects, was then gently inserted into the soil containing the treated plant, allowing insects to crawl out of the tip to reach the foliage for feeding. The cups were covered with a reusable screened lid. Test plants were maintained in the holding room at about 25° C. and about 20-40% relative humidity for 3 days avoiding direct exposure to the fluorescent light (24 hour photoperiod) to prevent trapping of heat inside the cup. Mortality was assessed 3 days after treatment of the plants.

[2] = system: Rice Green Leafhopper (Nephotettix virescens); experiment: CE.5 Rice green leafhopper, comparative test; conditions: 72 h, read-out: % mortality in comparison to untreated controls
[3] = system: Diamond back moth (Plutella xylostella); experiment: CE.6 Diamond back moth, contact activity, comparative test; conditions: read-out: % mortality in comparison to untreated controls
Description: as §1
CE.6 Diamond Back Moth (Plutella xylostella)
Ten third-instar larvae are sprayed with 1 ml test solution and introduce to untreated leaves held petri dished lined with moist filter paper. Mortality is recorded 24, 72, and 120 hours after treatment.

[4] = system: Southern Armyworm (Spodoptera eridania), 2nd Instar Larvae; experiment: CE.7 Southern armyworm, 2nd instar larvae, comparative test; conditions: foliar, 96 h, leaf dip, at 4 days, read-out: % mortality in comparison to untreated controls
Description: as §1
CE.7 Southern Armyworm (Spodoptera eridania), 2nd Instar Larvae
The active compounds were formulated in 50:50 acetone:water (vol) and 100 ppm Kinetica™ surfactant.
A pair of first true leaves of Sieva lima bean was dipped into the test solution and allowed to dry. The leaves were then placed in a plastic perforated zip enclosure bag and ten 2nd instar larvae were added. At 4 days, observations were made of mortality and reduced feeding.

O=C(NC1CCN(CC(F)(F)F)C1=O)c1ccc(C2=NOC(c3cc(Cl)c(F)c(Cl)c3)(C(F)(F)F)C2)c2c1CCC2 (stereo not shown) [Tab. 128, A-9 of WO 2015128358, reference compound]
mortality at 10 ppm [1]: 50%
mortality at 3 ppm [2]: 0%
mortality at 0.1 ppm [3]: 0%
mortality at 3 ppm [4]: 0%

Source: US20200190073A1, “SUBSTITUTED SUCCINIMIDE DERIVATIVES AS PESTICIDES” (BASF SE, priority 2017, published 2020)
